Laboratory results taken from US20160115446A1, “Technologies, Methods, and Products of Small Molecule Directed Tissue and Organ Regeneration from Human Pluripotent Stem Cells” (SAN DIEGO REGENERATIVE MEDICINE INSTITUTE, priority 2014, published 2016).

Test system: undifferentiated hESCs
Experiment: Cardiac induction of undifferentiated hESCs in defined culture by NAM (marker immunostaining, beating cardiomyocytes)
Format: cell-based, human
From the text: (b) Cardiac fate switch direct of the pluripotent state of hESCs induced by nicotinamide. NAM-induced Oct-4-negative cells began to express the cardiac specific transcription factor (Csx) Nkx2.5 (green) and alpha-actinin (red), consistent with early cardiac differentiation. […] All cells are indicated by DAPI staining of their nuclei (blue). Insets at the top better visualize individual cells at higher-magnification.
(Stage 1—Human Cardiomesodermal Cells) (FIGS. 1; 2a, b). Increased intensity of Nkx2.5 was usually observed in areas of the colonies where cells began to pile up (FIG. 2b). These differentiating hESCs then formed cardioblasts that uniformly expressed Nkx2.5 in suspension (Stage 2—Human Cardiac Precursor Cells) (FIGS. 1; 3a). […] (FIGS. 1, 3b). Cells within the beating cardiospheres expressed markers characteristic of cardiomyocytes (FIG. 3b). The cardiomyocytes can retain their strong contractility for over 3 months. Electrical profiles of the cardiomyocytes confirmed their contractions to be strong rhythmic impulses reminiscent of the p-QRS-T-complexes seen from body surface electrodes in clinical electrocardiograms (FIG. 3c). Cardiac specific transcription factor (Csx) Nkx2.5 is an evolutionally conserved homeobox transcription factor indispensable for normal cardiac development. The onset and pattern of early Nkx2.5 expression roughly coincide with the timing and area of cardiac specification, and Nkx2.5 gene continues to be expressed through development in the heart. Expression of Nkx2.5 is the earliest marker for heart precursor cells in all vertebrates so far examined and is essential for proper cardiac septation and formation/maturation of electrical conduction system.

With `NC(=O)c1cccnc1` [NAM, nicotinamide] the “expression of cardiac-specific transcription factor Csx/Nkx2.5” value (NAM 10 mM, defined culture) was “began expressing the earliest marker for heart precursor, Csx/Nkx2.5”, the “expression of pluripotence-associated markers (e.g., Oct-4)” value (NAM 10 mM, defined culture, all the cells within the colony) was “down-regulated the expression of pluripotence-associated markers” and the “appearance of beating cardiomyocytes” value (cardioblasts attached, further NAM treatment, after withdrawal of NAM, vs untreated control) was “drastic increase in efficiency”.
